Usually IC50 stands for the concentration needed to halve the response being measured. A low value points to greater potency in that assay.

This test deals with T1, human MDM2 (GST-hMDM2 1-188), interaction with biotinylated-p53 (1-83) (Homo sapiens, UniProt Q00987).
T1 construct: Amino acid residues 1-188 of human MDM2 were expressed; made in house; host or cells: Escherichia coli
T1 sequence (Q00987 1-188): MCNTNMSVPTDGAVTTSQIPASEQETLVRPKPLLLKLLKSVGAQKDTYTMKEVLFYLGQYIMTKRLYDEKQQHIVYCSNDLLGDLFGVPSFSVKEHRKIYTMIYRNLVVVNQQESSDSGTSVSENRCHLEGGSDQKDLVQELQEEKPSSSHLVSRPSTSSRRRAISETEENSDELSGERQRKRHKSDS
As to the kind of experiment: improved HTRF assay (HTRF2 assay), inhibition of HDM2-p53 interaction. It counts as binding. The conditions noted are these: 0.2 nM GST-hMDM2, 0.5 nM biotinylated-p53, 100 mM KF. A digest of the protocol:
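GST-hMDM2 preincubated 20 min at RT with serially diluted compound, then biotinylated p53 (1-83, E. coli) added for 60 min. Detection with SA-XLent, anti-GST cryptate and KF, equilibrated >4 h; final DMSO 2%. TR-FRET read; % inhibition calculated relative to nutlin-3.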
In turn, `COc1ccc([C@H]2O[C@H](CC(=O)O)C(=O)N([C@H](CSC(C)(C)C)C3CC3)[C@@H]2c2ccc(Cl)cc2)cc1Cl` (single isomer, unassigned) [Example 328, 2-((2R,5R,6R)-4-((S)-2-(tert-Butylthio)-1-cyclopropylethyl)-6-(3-chloro-4-methoxyphenyl)-5-(4-chlorophenyl)-3-oxomorpholin-2-yl)acetic acid or 2-((2S,5R,6R)-4-((S)-2-(tert-butylthio)-1-cyclopropylethyl)-6-(3-chloro-4-methoxyphenyl)-5-(4-chlorophenyl)-3-oxomorpholin-2-yl)acetic acid] returned an IC50 of 0.012 µM.

On to `CC[C@@H](CN(c1ccccc1F)S(=O)(=O)C1CC1)N1C(=O)[C@@](C)(CC(=O)O)O[C@H](c2cccc(Cl)c2)[C@H]1c1ccc(Cl)cc1` (single isomer, unassigned) [Example 329, 2-((2R,5R,6R)-6-(3-Chlorophenyl)-5-(4-chlorophenyl)-4-((S)-1-(N-(2-fluorophenyl)cyclopropanesulfonamido)butan-2-yl)-2-methyl-3-oxomorpholin-2-yl)acetic acid or 2-((2S,5R,6R)-6-(3-chlorophenyl)-5-(4-chlorophenyl)-4-((S)-1-(N-(2-fluorophenyl)cyclopropanesulfonamido)butan-2-yl)-2-methyl-3-oxomorpholin-2-yl)acetic acid], for which the IC50 amounted to 0.138 µM.

Compound `CC[C@@H](CN(c1ccccc1F)S(=O)(=O)C1CC1)N1C(=O)[C@@](C)(CC(=O)O)O[C@H](c2cccc(Cl)c2)[C@H]1c1ccc(Cl)cc1` (single isomer, unassigned) [Example 330, 2-((2R,5R,6R)-6-(3-Chlorophenyl)-5-(4-chlorophenyl)-4-((S)-1-(N-(2-fluorophenyl)cyclopropanesulfonamido)butan-2-yl)-2-methyl-3-oxomorpholin-2-yl)acetic acid or 2-((2S,5R,6R)-6-(3-chlorophenyl)-5-(4-chlorophenyl)-4-((S)-1-(N-(2-fluorophenyl)cyclopropanesulfonamido)butan-2-yl)-2-methyl-3-oxomorpholin-2-yl)acetic acid] showed a half-inhibitory concentration (IC50) of 0.001 µM.

The compound `C[C@]1(CC(=O)O)O[C@H](c2cccc(Cl)c2)[C@@H](c2ccc(Cl)cc2)N([C@H](CN(c2ccccc2F)S(=O)(=O)C2CC2)C2CC2)C1=O` (single isomer, unassigned) [Example 331, 2-((2R,5R,6R)-6-(3-Chlorophenyl)-5-(4-chlorophenyl)-4-((S)-1-cyclopropyl-2-(N-(2-fluorophenyl)cyclopropanesulfonamido)ethyl)-2-methyl-3-oxomorpholin-2-yl)acetic acid or 2-((2S,5R,6R)-6-(3-chlorophenyl)-5-(4-chlorophenyl)-4-((S)-1-cyclopropyl-2-(N-(2-fluorophenyl)cyclopropanesulfonamido)ethyl)-2-methyl-3-oxomorpholin-2-yl)acetic acid] registered a concentration for half-maximal inhibition (IC50) of under 0.001 µM.

For the compound `C[C@]1(CC(=O)O)O[C@H](c2cccc(Cl)c2)[C@@H](c2ccc(Cl)cc2)N([C@H](CN(c2ccccc2F)S(=O)(=O)C2CC2)C2CC2)C1=O` (single isomer, unassigned) [Example 332, 2-((2R,5R,6R)-6-(3-Chlorophenyl)-5-(4-chlorophenyl)-4-((S)-1-cyclopropyl-2-(N-(2-fluorophenyl)cyclopropanesulfonamido)ethyl)-2-methyl-3-oxomorpholin-2-yl)acetic acid or 2-((2S,5R,6R)-6-(3-chlorophenyl)-5-(4-chlorophenyl)-4-((S)-1-cyclopropyl-2-(N-(2-fluorophenyl)cyclopropanesulfonamido)ethyl)-2-methyl-3-oxomorpholin-2-yl)acetic acid], inhibition was half-maximal at 0.027 µM (IC50).

Consider `O=C(O)C[C@@]1(CC(F)(F)F)O[C@H](c2cccc(Cl)c2)[C@@H](c2ccc(Cl)cc2)N([C@H](CN(c2ccccc2F)S(=O)(=O)C2CC2)C2CC2)C1=O` (single isomer, unassigned) [Example 333, 2-((2S,5R,6R)-6-(3-Chlorophenyl)-5-(4-chlorophenyl)-4-((S)-1-cyclopropyl-2-(N-(2-fluorophenyl)cyclopropanesulfonamido)ethyl)-3-oxo-2-(2,2,2-trifluoroethyl)morpholin-2-yl)acetic acid or 2-((2R,5R,6R)-6-(3-chlorophenyl)-5-(4-chlorophenyl)-4-((S)-1-cyclopropyl-2-(N-(2-fluorophenyl)cyclopropanesulfonamido)ethyl)-3-oxo-2-(2,2,2-trifluoroethyl)morpholin-2-yl)acetic acid], for which the half-inhibitory concentration (IC50) is 0.199 µM.

For `CC(C)(C)S(=O)(=O)C[C@H](C1CC1)N1C(=O)[C@@](C)(CC(=O)O)O[C@H](c2cccc(Cl)c2)[C@H]1c1ccc(Cl)cc1` (single isomer, unassigned) [Example 334, 2-((2R,5R,6R)-4-((S)-2-(tert-Butylsulfonyl)-1-cyclopropylethyl)-6-(3-chlorophenyl)-5-(4-chlorophenyl)-2-methyl-3-oxomorpholin-2-yl)acetic acid or 2-((2S,5R,6R)-4-((S)-2-(tert-butylsulfonyl)-1-cyclopropylethyl)-6-(3-chlorophenyl)-5-(4-chlorophenyl)-2-methyl-3-oxomorpholin-2-yl)acetic acid], the IC50 is under 0.001 µM.

Take `CC(C)(C)S(=O)(=O)C[C@H](C1CC1)N1C(=O)[C@@](C)(CC(=O)O)O[C@H](c2cccc(Cl)c2)[C@H]1c1ccc(Cl)cc1` (single isomer, unassigned) [Example 335, 2-((2R,5R,6R)-4-((S)-2-(tert-Butylsulfonyl)-1-cyclopropylethyl)-6-(3-chlorophenyl)-5-(4-chlorophenyl)-2-methyl-3-oxomorpholin-2-yl)acetic acid or 2-((2S,5R,6R)-4-((S)-2-(tert-butylsulfonyl)-1-cyclopropylethyl)-6-(3-chlorophenyl)-5-(4-chlorophenyl)-2-methyl-3-oxomorpholin-2-yl)acetic acid]: the midpoint of inhibition, the IC50, lay at 0.003 µM.

`C[C@H]1CCCN1S(=O)(=O)C[C@H](C1CC1)N1C(=O)[C@@](C)(CC(=O)O)O[C@H](c2cccc(Cl)c2)[C@H]1c1ccc(Cl)cc1` (single isomer, unassigned) [Example 336, 2-((2R,5R,6R)-6-(3-Chlorophenyl)-5-(4-chlorophenyl)-4-((S)-1-cyclopropyl-2-(((S)-2-methylpyrrolidin-1-yl)sulfonyl)ethyl)-2-methyl-3-oxomorpholin-2-yl)acetic acid or 2-((2S,5R,6R)-6-(3-chlorophenyl)-5-(4-chlorophenyl)-4-((S)-1-cyclopropyl-2-(((S)-2-methylpyrrolidin-1-yl)sulfonyl)ethyl)-2-methyl-3-oxomorpholin-2-yl)acetic acid] came in with a 50% inhibitory concentration (IC50) of under 0.001 µM.

`C[C@H]1CCCN1S(=O)(=O)C[C@H](C1CC1)N1C(=O)[C@@](C)(CC(=O)O)O[C@H](c2cccc(Cl)c2)[C@H]1c1ccc(Cl)cc1` (single isomer, unassigned) [Example 337, 2-((2R,5R,6R)-6-(3-Chlorophenyl)-5-(4-chlorophenyl)-4-((S)-1-cyclopropyl-2-(((S)-2-methylpyrrolidin-1-yl)sulfonyl)ethyl)-2-methyl-3-oxomorpholin-2-yl)acetic acid or 2-((2S,5R,6R)-6-(3-chlorophenyl)-5-(4-chlorophenyl)-4-((S)-1-cyclopropyl-2-(((S)-2-methylpyrrolidin-1-yl)sulfonyl)ethyl)-2-methyl-3-oxomorpholin-2-yl)acetic acid] showed a 50% inhibitory concentration (IC50) of 0.05 µM.

Compound `CC(C)(C)S(=O)(=O)C[C@H](CC(F)(F)F)N1C(=O)[C@@](C)(CC(=O)O)O[C@H](c2cccc(Cl)c2)[C@H]1c1ccc(Cl)cc1` (single isomer, unassigned) [Example 340, 2-((2R,5R,6R)-4-((S)-1-(tert-Butylsulfonyl)-4,4,4-trifluorobutan-2-yl)-6-(3-chlorophenyl)-5-(4-chlorophenyl)-2-methyl-3-oxomorpholin-2-yl)acetic acid or 2-((2S,5R,6R)-4-((S)-1-(tert-butylsulfonyl)-4,4,4-trifluorobutan-2-yl)-6-(3-chlorophenyl)-5-(4-chlorophenyl)-2-methyl-3-oxomorpholin-2-yl)acetic acid] yielded an IC50 of 0.028 µM.

On to `CC(C)(C)S(=O)(=O)C[C@H](CC(F)(F)F)N1C(=O)[C@@](C)(CC(=O)O)O[C@H](c2cccc(Cl)c2)[C@H]1c1ccc(Cl)cc1` (single isomer, unassigned) [Example 341, 2-((2R,5R,6R)-4-((S)-1-(tert-Butylsulfonyl)-4,4,4-trifluorobutan-2-yl)-6-(3-chlorophenyl)-5-(4-chlorophenyl)-2-methyl-3-oxomorpholin-2-yl)acetic acid or 2-((2S,5R,6R)-4-((S)-1-(tert-butylsulfonyl)-4,4,4-trifluorobutan-2-yl)-6-(3-chlorophenyl)-5-(4-chlorophenyl)-2-methyl-3-oxomorpholin-2-yl)acetic acid], for which the 50% inhibitory concentration (IC50) was under 0.001 µM.

`CC[C@]1(CC(=O)O)O[C@H](c2cccc(Cl)c2)[C@@H](c2ccc(Cl)cc2)N([C@@H](CC(F)(F)F)CS(=O)(=O)C(C)(C)C)C1=O` (single isomer, unassigned) [Example 342, 2-((2R,5R,6R)-4-((S)-1-(tert-Butylsulfonyl)-4,4,4-trifluorobutan-2-yl)-6-(3-chlorophenyl)-5-(4-chlorophenyl)-2-ethyl-3-oxomorpholin-2-yl)acetic acid or 2-((2S,5R,6R)-4-((S)-1-(tert-butylsulfonyl)-4,4,4-trifluorobutan-2-yl)-6-(3-chlorophenyl)-5-(4-chlorophenyl)-2-ethyl-3-oxomorpholin-2-yl)acetic acid] had an IC50 of 0.104 µM.

The values above are taken from patent publication US9376425B2, “Heterocyclic compounds as MDM2 inhibitors for the treatment of cancer” (AMGEN INC., priority 2011, dated 2016).
